Results reported in US4959368A, “Therapeutic agent for neurological diseases” (Mitsui Petrochemical Industries Ltd., priority 1986, dated 1990).

What was measured:
[1] = system: rats with lesioned nigral dopaminergic nerve cells; experiment: Methamphetamine-induced rotational movement of rats with lesioned nigral dopaminergic nerve cells after transplantation of fetal cerebral cells; assay type: in vivo, rat (female Wistar); settings: number within one minute
Procedure: Rats and mice models of central nervous disorders were prepared, and the pharmacological effects of the compounds (I) of this invention were tested. Specifically, nigral dopamine cells of the rat brain were chemically destroyed by injecting a very small amount of 6-hydroxydopamineto induce motor imbalance. Two weeks later, dopamine cells of fetal brain were transplanted in the caudate nucleus into the lesioned side of the rat brain and an attempt was made to improve the motor trouble. Specifically, beginning on the day of transplantation, the compound (I) of the invention was intraperitoneally administered every day over 2 weeks, and the activity of the compounds (I) of the invention on the improvement of the motor imbalance and the growth of the transplanted cells was examined.
Promoting effect on the improvement of motor imbalance due to injury of the rat's brain cells by transplantation of fetal cerebral cells:
Nigral dopaminergic nerve cells at the left side of the brain of 4-week old female Wistar rats (body weight 100 g) were lesioned by injecting a very small quantity of 6-hydroxydopamine. […] Upon administration of methamphethamine (5 mg/kg, i.p.) to the rats having the lesioned nigral dopaminergic nerve cells, they began rotational movement toward the lesioned side.
After two weeks from the destruction by the administration of the drug, portions of the […] containing dopamine cells (i.e., substantia nigra and the tagmentum at the abdomen side) were cut from the brain of a fetal rat of 14 to 17 days of age, cut finely, and treated with trypsin. Then, the extracted tissues were incubated at 37° C. for 30 minutes, and the tissues were subjected to pipetting to form a suspension. Five microliters of the suspension was transplanted each into two sites of the caudate nucleus of the lesioned side (10 microliters in total, about 10^5 cells).
Each of the compounds (I) in a dose of 100 mg/kg (i.p.) was administered every day over two weeks from the day of transplantation. The rotational movements induced by administration of methamphetamine were examined 2 weeks and 1 week before, and 2 weeks and 4 weeks after, the transplantation and the administration of the drug. The number of rotational movements within one minute was counted at intervals of 10 minutes after the administration of methamphetamine, and the total number of rotational movements counted six times was averaged to find a mean number of the rotational movements.

mice = experiment: Acute toxicity, mouse; assay type: in vivo; settings: 24 hours; for Number of dead animals/number of test animals: Table 7, 1000 mg/kg p.o.; for Presumed LD50: Table 7, p.o.
Procedure: The acute toxicity of the compounds of the invention was examined by the following method.
Male ddy-strain 5-week old mice and male Wistar-strain 8 week old rats, five per group, were used as experimental animals. Each of the compounds was dissolved in saline and administered perorally, and the toxicity of the compound was assessed 24 hours after the administration.

[2] = system: mouse neuroblastoma cell line neuro-2a; experiment: Activity on neuro-2a, cells with outgrown neurites; assay type: cell-based
Method in brief: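 Mouse neuro-2a cells in DMEM with FCS exposed to compounds for 24 h (up to 6 concentrations, triplicate runs), glutaraldehyde-fixed and methylene blue-stained. Proportion of cells bearing a neurite at least twice the cell's long diameter counted microscopically over ≥200 cells.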

[3] = system: human neuroblastoma cell line GOTO; experiment: Activity on neuroblastoma cell line GOTO (cell number, number and length of neurites); assay type: cell-based; settings: for Number of cells (mean ± S.E.): control 12.30 ± 1.48
Method in brief: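 GOTO cells were cultured 1–2 days at 37 °C, 5% CO2, then switched to serum-free RPMI/MEM (1:1) with compounds in PBS at various concentrations for 24 h. Living cells were counted by erythrosine exclusion (3–6 dishes); neurite number and length per cell were measured from photographs.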

[4] = Run No. 1, 1 week before transplantation, saline 12.23 ± 4.88
[5] = Run No. 1, 2 weeks after transplantation, 100 mg/kg i.p. daily over two weeks, saline 5.9 ± 2.75
[6] = Run No. 1, 2 weeks before transplantation, saline 10.9 ± 4.57
[7] = Run No. 1, 4 weeks after transplantation, 100 mg/kg i.p. daily over two weeks, saline 3 ± 3.23
[8] = Run No. 2, 1 week before transplantation, saline 10 ± 5.3
[9] = Run No. 2, 2 weeks after transplantation, 100 mg/kg i.p. daily over two weeks, saline 4.4 ± 5.9
[10] = Run No. 2, 2 weeks before transplantation, saline 12 ± 3.95
[11] = Run No. 2, 4 weeks after transplantation, 100 mg/kg i.p. daily over two weeks, saline 1.5 ± 3.2
[12] = Table 1 Run No. 2, 1 μg/ml, control 2.06 ± 0.60
[13] = Table 1 Run No. 2, 1 μg/ml, control 55.00 ± 37.26
[14] = Table 1 Run No. 2, 10 μg/ml, control 2.06 ± 0.60
[15] = Table 1 Run No. 2, 10 μg/ml, control 55.00 ± 37.26

Structure (SMILES): CN1C(=O)Cc2cnc(N3CCNCC3)nc21 [Compound 408]
- Number of rotational movements (mean ± S.D.) [1, 4]: 12.27 ± 2.48
- Number of rotational movements (mean ± S.D.) [1, 5]: 4.9 ± 2.38
- Number of rotational movements (mean ± S.D.) [1, 6]: 8.57 ± 2.36
- Number of rotational movements (mean ± S.D.) [1, 7]: 2.03 ± 1.56
- Number of rotational movements (mean ± S.D.) [1, 8]: 11.06 ± 4.5
- Number of rotational movements (mean ± S.D.) [1, 9]: 1.94 ± 2.0
- Number of rotational movements (mean ± S.D.) [1, 10]: 10.94 ± 6.4
- Number of rotational movements (mean ± S.D.) [1, 11]: 1.53 ± 2.1
- Number of dead animals/number of test animals (mice; 1000 mg/kg): 0/5
- Presumed LD50 (mice): > 1000 mg/kg p.o.
- Cells having neurites with a length at least twice the long diameter of cell/total number of cells ([2]; Table 3 Run No. 3, 0.01 mM, control 3.9 ± 0.3): 7.9 ± 1.8%
- Cells having neurites with a length at least twice the long diameter of cell/total number of cells ([2]; Table 3 Run No. 3, 0.03 mM, control 3.9 ± 0.3): 13.0 ± 1.2%
- Cells having neurites with a length at least twice the long diameter of cell/total number of cells ([2]; Table 3 Run No. 3, 0.05 mM, control 3.9 ± 0.3): 23.0 ± 1.7%
- Cells having neurites with a length at least twice the long diameter of cell/total number of cells ([2]; Table 3 Run No. 3, 0.1 mM, control 3.9 ± 0.3): 51.2 ± 1.5%
- Cells having neurites with a length at least twice the long diameter of cell/total number of cells ([2]; Table 3 Run No. 4, 0.05 mM, control 3.1 ± 0.2): 16.8 ± 2.7%
- Cells having neurites with a length at least twice the long diameter of cell/total number of cells ([2]; Table 3 Run No. 4, 0.1 mM, control 3.1 ± 0.2): 33.5 ± 2.7%
- Cells having neurites with a length at least twice the long diameter of cell/total number of cells ([2]; Table 3 Run No. 4, 0.2 mM, control 3.1 ± 0.2): 44.6 ± 3.1%
- Cells having neurites with a length at least twice the long diameter of cell/total number of cells ([2]; Table 3 Run No. 7, 0.01 mM, control 2.5 ± 0.7): 6.2 ± 0.9%
- Cells having neurites with a length at least twice the long diameter of cell/total number of cells ([2]; Table 3 Run No. 7, 0.1 mM, control 2.5 ± 0.7): 25.0 ± 2.7%
- Cells having neurites with a length at least twice the long diameter of cell/total number of cells ([2]; Table 3 Run No. 7, 0.2 mM, control 2.5 ± 0.7): 44.5 ± 2.9%
- Cells having neurites with a length at least twice the long diameter of cell/total number of cells ([2]; Table 3 first Run No. 5, 0.05 mM, no control given): 12.8 ± 1.8%
- Cells having neurites with a length at least twice the long diameter of cell/total number of cells ([2]; Table 3 first Run No. 5, 0.1 mM, no control given): 23.5 ± 2.5%
- Number of neurites/cell (mean ± S.D.) [3, 12]: 2.11 ± 0.65 neurites/cell
- Number of cells (mean ± S.E.) ([3]; Table 1 Run No. 2, 1 μg/ml): 17.52 ± 2.57 × 10^4 /dish
- Length of neurites (mean ± S.D.) [3, 13]: 66.09 ± 36.49 μm/cell
- Number of neurites/cell (mean ± S.D.) [3, 14]: 2.17 ± 0.66 neurites/cell
- Number of cells (mean ± S.E.) ([3]; Table 1 Run No. 2, 10 μg/ml): 13.07 ± 0.80 × 10^4 /dish
- Length of neurites (mean ± S.D.) [3, 15]: 69.33 ± 40.68 μm/cell

Structure (SMILES): CN1Cc2nc(N3CCNCC3)ncc2C1=O [Compound 604]
- Number of rotational movements (mean ± S.D.) [1, 4]: 10.4 ± 5.75
- Number of rotational movements (mean ± S.D.) [1, 5]: 2.99 ± 2.91
- Number of rotational movements (mean ± S.D.) [1, 6]: 10.6 ± 3.82
- Number of rotational movements (mean ± S.D.) [1, 7]: 3.37 ± 1.65
- Number of rotational movements (mean ± S.D.) [1, 8]: 11.28 ± 4.0
- Number of rotational movements (mean ± S.D.) [1, 9]: 1.03 ± 2.9
- Number of rotational movements (mean ± S.D.) [1, 10]: 13.33 ± 4.9
- Number of rotational movements (mean ± S.D.) [1, 11]: 0.75 ± 2.8
- Number of dead animals/number of test animals (mice): 0/5
- Presumed LD50 (mice; 1440 min): > 1000 mg/kg p.o.
- Cells having neurites with a length at least twice the long diameter of cell/total number of cells ([2]; Table 3 Run No. 3, 0.3 mM, control 3.9 ± 0.3): 8.6 ± 0.9%
- Cells having neurites with a length at least twice the long diameter of cell/total number of cells ([2]; Table 3 Run No. 3, 1 mM, control 3.9 ± 0.3): 10.7 ± 1.3%
- Length of neurites (mean ± S.D.) ([3]; Table 1, Run No. 6 by footnote, 1 μg/ml, control 42.48 ± 19.64, all *P <0.01): 58.88 ± 22.72 μm/cell
- Number of neurites/cell (mean ± S.D.) ([3]; Table 1, second control group (Run No. 6 by footnote), 1 μg/ml, control 1.79 ± 0.80): 2.23 ± 0.81 neurites/cell
- Number of neurites/cell (mean ± S.D.) [3, 12]: 2.29 ± 0.77 neurites/cell
- Number of cells (mean ± S.E.) ([3]; Table 1 Run No. 2, 1 μg/ml): 14.41 ± 2.98 × 10^4 /dish
- Length of neurites (mean ± S.D.) [3, 13]: 76.30 ± 51.49 μm/cell
- Number of neurites/cell (mean ± S.D.) [3, 14]: 2.27 ± 0.62 neurites/cell
- Number of cells (mean ± S.E.) ([3]; Table 1 Run No. 2, 10 μg/ml): 11.85 ± 1.36 × 10^4 /dish
- Length of neurites (mean ± S.D.) [3, 15]: 72.06 ± 42.79 μm/cell
